Values of other authors, collected in patent publication US20190320896A1, “STROKE, CONCUSSION, AND COGNITIVE DYSFUNCTION DIAGNOSTIC METHOD AND DEVICE” (priority 2018, published 2019).

What was measured:
[1] = upon entering the circulation after bolus injection into a peripheral vein
[2] = after administration; metabolized by the kidneys
[3] = human, in vivo

| dye molecules bound to plasma proteins [1] | time to elimination through the urine [2] [h] | GLOS also affecting the aqueous chamber, cases [3] | GLOS in both chambers, patients [3] | GLOS in the aqueous chamber alone, patients [3] | GLOS in the vitreous chamber alone, patients [3] | GLOS present, always involving the vitreous chamber, patients [3] [% patients] | SMILES |
| --- | --- | --- | --- | --- | --- | --- | --- |
| approximately 80% | 24 to 36 |  |  |  |  |  | O=C1OC2(c3ccc(O)cc3Oc3cc(O)ccc32)c2ccccc21 [sodium fluorescein] |
|  |  | 6 % of cases | 27 % of patients | 67 % of patients | 6 % of patients | 75 | O=C([O-])CN(CCN(CC(=O)[O-])CC(=O)[O-])CCN(CC(=O)[O-])CC(=O)[O-].[Gd+3] [gadolinium, Gadolinium-DTPA] |
